Results: patent US9133183B2, “Imidazolidinones and analogs exhibiting anti-cancer and anti-proliferative activities” (Deciphera Pharmaceuticals, LLC, priority 2013, dated 2015)

Assays:
[1] = target: unphosphorylated c-KIT kinase (uKIT, Seq. ID no. 2) (Homo sapiens (Human), UniProt P10721); experiment: uKit kinase assay (coupled pyruvate kinase/lactate dehydrogenase); format: biochemical; conditions: enzymatic assay, ATP 2000 μM
Procedure, shortened: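 The read-out was a continuous PK/LDH-coupled decrease in NADH absorbance at 340 nm, monitored at 30 °C over 4 h. IC50 came from % inhibition based on rates at 3–4 h. The GST-tagged unphosphorylated KIT (12 nM) was used with polyE4Y substrate, 2000 μM ATP and 10 mM Mg2+ at pH 7.5, with serially diluted compound.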

osteoclast precursors = experiment: Osteoclast tartrate-resistant acid phosphatase assay; format: cell-based; conditions: Osteoclast, 7-14 days, RANKL and M-CSF
[2] = target: unphosphorylated PDGFRβ kinase (uPDGFRβ, Seq. ID No. 3) (Homo sapiens (Human), UniProt P09619); experiment: Unphosphorylated PDGFRβ kinase assay (coupled pyruvate kinase/lactate dehydrogenase); format: biochemical; conditions: enzymatic assay, ATP 500 μM
Experimental: Unphosphorylated PDGFRβ (uPDGFRβ) Kinase (Seq. ID No. 3) Assay
Activity of unphosphorylated PDGFRβ kinase (uPDGFRβ, Seq. ID No. 3) was determined by following the production of ADP from the kinase reaction with ATP and poly E4Y as substrates through coupling with the pyruvate kinase/lactate dehydrogenase system (e.g., Schindler et al. Science (2000) 289: 1938-1942). In this assay, the oxidation of NADH (thus the decrease at A340 nm) was continuously monitored spectrophometrically. The reaction mixture (100 μL) contained PDGFRβ (DeCode, 15.7 nM), polyE4Y (2.5 mg/mL), MgCl2 (10 mM), pyruvate kinase (4 units), lactate dehydrogenase (0.7 units), phosphoenol pyruvate (1 mM) and NADH (0.28 mM) and ATP (500 μM) in a 90 mM Tris buffer containing 0.2% octyl-glucoside and 1% DMSO, at pH 7.5. The inhibition reaction was started by mixing serial diluted test compound with the above reaction mixture. The absorption at 340 nm was monitored continuously for 4 h at 30° C. on a Polarstar Optima or Synergy 2 plate reader. The reaction rate was calculated using the 1.5 to 2.5 h time frame. Percent inhibition was obtained by comparison of reaction rate with that of a control (i.e., with no test compound). IC50 values were calculated from a series of percent inhibition values determined at a range of inhibitor concentrations using software routines as implemented in the GraphPad Prism software package.
uPDGFRβ Kinase Sequence (Residues 557-1106) Used for Screening (Seq ID No. 3)

M-NFS-60 cells = experiment: M-NFS-60 cell proliferation assay (resazurin); format: cell-based; conditions: 67 h incubation
Procedure, shortened: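 Cells kept in medium containing 20 ng/mL mouse recombinant M-CSF. Fluorescence was read at ex 540/em 600 nm, and IC50 was fitted from percent inhibition across a range of inhibitor concentrations.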

[3] = target: unphosphorylated c-FMS kinase (uFMS, Seq. ID no. 1) (Homo sapiens (Human), UniProt P07333); experiment: uFMS kinase assay (ADP production coupled to pyruvate kinase/lactate dehydrogenase); format: biochemical; conditions: enzymatic assay, ATP 500 μM; read-out: uFMS
Procedure, shortened: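 Unphosphorylated FMS (10 nM) with polyE4Y 1 mg/mL and 500 μM ATP in 90 mM Tris pH 7.5, 10 mM MgCl2, 0.2% octyl-glucoside, 1% DMSO. ADP formation was coupled via pyruvate kinase/LDH to NADH oxidation, followed at A340 for 4 h at 30° C.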

unphosphorylated c-KIT kinase (uKIT, Seq. ID no. 2), sequence (P10721 other isoform, or with tags, fused parts or gaps): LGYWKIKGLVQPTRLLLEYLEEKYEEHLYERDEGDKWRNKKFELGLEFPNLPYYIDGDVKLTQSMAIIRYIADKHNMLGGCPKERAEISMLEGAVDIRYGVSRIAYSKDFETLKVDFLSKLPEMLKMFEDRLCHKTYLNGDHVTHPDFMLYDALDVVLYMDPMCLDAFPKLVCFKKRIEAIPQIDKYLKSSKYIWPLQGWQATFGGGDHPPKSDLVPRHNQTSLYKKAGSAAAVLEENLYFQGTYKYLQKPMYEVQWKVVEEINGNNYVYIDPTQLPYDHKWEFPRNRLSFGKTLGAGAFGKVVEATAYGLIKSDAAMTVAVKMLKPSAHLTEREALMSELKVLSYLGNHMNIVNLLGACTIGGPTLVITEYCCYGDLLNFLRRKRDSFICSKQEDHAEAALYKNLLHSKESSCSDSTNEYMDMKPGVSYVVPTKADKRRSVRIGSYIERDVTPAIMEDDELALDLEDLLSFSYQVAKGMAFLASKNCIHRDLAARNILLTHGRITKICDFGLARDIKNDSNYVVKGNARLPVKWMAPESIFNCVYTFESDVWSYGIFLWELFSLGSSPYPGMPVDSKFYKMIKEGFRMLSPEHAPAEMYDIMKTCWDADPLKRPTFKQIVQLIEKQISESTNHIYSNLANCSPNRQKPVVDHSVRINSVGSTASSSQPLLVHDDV
unphosphorylated c-FMS kinase (uFMS, Seq. ID no. 1), sequence (P07333 538-972): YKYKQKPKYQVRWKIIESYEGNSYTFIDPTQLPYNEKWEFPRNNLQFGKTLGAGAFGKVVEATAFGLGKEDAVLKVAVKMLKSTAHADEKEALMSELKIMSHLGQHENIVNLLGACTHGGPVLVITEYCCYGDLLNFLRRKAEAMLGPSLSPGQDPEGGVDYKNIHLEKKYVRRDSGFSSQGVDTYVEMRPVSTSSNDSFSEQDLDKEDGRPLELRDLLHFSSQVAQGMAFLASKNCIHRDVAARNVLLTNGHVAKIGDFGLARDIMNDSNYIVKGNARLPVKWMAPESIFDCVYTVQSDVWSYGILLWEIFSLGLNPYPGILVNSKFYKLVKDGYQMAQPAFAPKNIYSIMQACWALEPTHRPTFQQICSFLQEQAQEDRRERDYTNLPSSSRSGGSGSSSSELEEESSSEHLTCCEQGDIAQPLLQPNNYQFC
unphosphorylated PDGFRβ kinase (uPDGFRβ, Seq. ID No. 3), sequence (P09619 557-1106): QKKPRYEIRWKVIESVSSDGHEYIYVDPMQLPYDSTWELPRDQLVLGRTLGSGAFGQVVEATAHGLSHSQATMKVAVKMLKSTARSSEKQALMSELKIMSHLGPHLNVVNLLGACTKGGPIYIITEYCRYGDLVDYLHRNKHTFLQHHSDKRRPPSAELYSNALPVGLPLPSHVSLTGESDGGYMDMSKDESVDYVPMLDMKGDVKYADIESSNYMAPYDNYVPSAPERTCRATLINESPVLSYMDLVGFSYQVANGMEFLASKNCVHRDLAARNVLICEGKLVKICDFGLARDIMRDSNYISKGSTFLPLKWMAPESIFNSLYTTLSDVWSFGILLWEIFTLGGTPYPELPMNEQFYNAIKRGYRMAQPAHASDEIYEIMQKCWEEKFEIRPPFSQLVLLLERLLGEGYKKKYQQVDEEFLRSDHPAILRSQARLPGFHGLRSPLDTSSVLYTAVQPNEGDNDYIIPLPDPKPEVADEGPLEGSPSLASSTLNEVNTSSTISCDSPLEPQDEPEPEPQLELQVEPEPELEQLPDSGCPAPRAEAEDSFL

Cn1cc(-c2cc(Oc3ccc(NC(=O)N4CCN(CC(F)(F)F)C4=O)nc3)ccn2)cn1 [Example 48, N-(5-((2-(1-methyl-1H-pyrazol-4-yl)pyridin-4-yl)oxy)pyridin-2-yl)-2-oxo-3-(2,2,2-trifluoroethyl)imidazolidine-1-carboxamide]
IC50 [1]: < 10 nM
IC50 (osteoclast precursors): < 10 nM
IC50 [2]: 100 to 1000 nM
IC50 (M-NFS-60 cells): 10 to 100 nM
IC50 [3]: < 10 nM

Cn1cc(-c2cc(Oc3ccc(NC(=O)N4CCN(C5COC5)C4=O)nc3)ccn2)cn1 [Example 50, N-(5-((2-(1-methyl-1H-pyrazol-4-yl)pyridin-4-yl)oxy)pyridin-2-yl)-3-(oxetan-3-yl)-2-oxoimidazolidine-1-carboxamide]
IC50 [1]: 10 to 100 nM
IC50 (osteoclast precursors): 10 to 100 nM
IC50 [2]: > 1000 nM
IC50 (M-NFS-60 cells): 10 to 100 nM
IC50 [3]: 10 to 100 nM

CCN1CCN(C(=O)Nc2ccc(Oc3ccnc(-c4cnc(C)s4)c3)cn2)C1=O [Example 69, 3-ethyl-N-(5-((2-(2-methylthiazol-5-yl)pyridin-4-yl)oxy)pyridin-2-yl)-2-oxoimidazolidine-1-carboxamide]
IC50 [1]: 10 to 100 nM
IC50 (osteoclast precursors): 10 to 100 nM
IC50 [2]: > 1000 nM
IC50 (M-NFS-60 cells): 100 to 1000 nM
IC50 [3]: 10 to 100 nM

Cc1nc(NC(=O)N2CCN(C3CC3)C2=O)ccc1Oc1ccnc(-c2ccc(C3CCN(C)CC3)cc2)c1 [Example 86, 3-cyclopropyl-N-(6-methyl-5-((2-(4-(1-methylpiperidin-4-yl)phenyl)pyridin-4-yl)oxy)pyridin-2-yl)-2-oxoimidazolidine-1-carboxamide]
IC50 [1]: 10 to 100 nM
IC50 (osteoclast precursors): < 10 nM
IC50 [2]: > 1000 nM
IC50 (M-NFS-60 cells): < 10 nM
IC50 [3]: < 10 nM

Cn1cc(-c2cc(Oc3ccc(NC(=O)N4CCN(CC#N)C4=O)nc3)ccn2)cn1 [Example 55, 3-(cyanomethyl)-N-(5-((2-(1-methyl-1H-pyrazol-4-yl)pyridin-4-yl)oxy)pyridin-2-yl)-2-oxoimidazolidine-1-carboxamide]
IC50 [1]: > 1000 nM
IC50 (osteoclast precursors): 100 to 1000 nM
IC50 [2]: > 1000 nM
IC50 (M-NFS-60 cells): 100 to 1000 nM
IC50 [3]: 100 to 1000 nM

Cn1cc(-c2cc(Oc3cc(F)c(NC(=O)N4CCN(C5CCOCC5)C4=O)cc3Br)ccn2)cn1 [Example 109, N-(5-bromo-2-fluoro-4-((2-(1-methyl-1H-pyrazol-4-yl)pyridin-4-yl)oxy)phenyl)-2-oxo-3-(tetrahydro-2H-pyran-4-yl)imidazolidine-1-carboxamide]
IC50 [1]: 10 to 100 nM
IC50 (osteoclast precursors): 100 to 1000 nM
IC50 [2]: > 1000 nM
IC50 (M-NFS-60 cells): 10 to 100 nM
IC50 [3]: 10 to 100 nM

CC(C)N1CCN(C(=O)Nc2ncc(Oc3ccnc(-c4cnn(C)c4)c3)cn2)C1=O [Example 2, 3-isopropyl-N-(5-((2-(1-methyl-1H-pyrazol-4-yl)pyridin-4-yl)oxy)pyrimidin-2-yl)-2-oxoimidazolidine-1-carboxamide]
IC50 [1]: 10 to 100 nM
IC50 (osteoclast precursors): < 10 nM
IC50 [2]: > 1000 nM
IC50 (M-NFS-60 cells): 10 to 100 nM
IC50 [3]: 10 to 100 nM

Cn1cc(-c2cc(Oc3ccc(NC(=O)N4CCN(C5CC5)C4=O)nc3)ccn2)cn1 [Example 46, 3-cyclopropyl-N-(5-((2-(1-methyl-1H-pyrazol-4-yl)pyridin-4-yl)oxy)pyridin-2-yl)-2-oxoimidazolidine-1-carboxamide]
IC50 [1]: 10 to 100 nM
IC50 (osteoclast precursors): < 10 nM
IC50 [2]: 100 to 1000 nM
IC50 (M-NFS-60 cells): 10 to 100 nM
IC50 [3]: < 10 nM

Cc1cn(-c2cc(Oc3cnc(NC(=O)N4CCN(C)C4=O)cc3C)ccn2)cn1 [Example 89, 3-methyl-N-(4-methyl-5-((2-(4-methyl-1H-imidazol-1-yl)pyridin-4-yl)oxy)pyridin-2-yl)-2-oxoimidazolidine-1-carboxamide]
IC50 [1]: 100 to 1000 nM
IC50 (osteoclast precursors): 100 to 1000 nM
IC50 [2]: > 1000 nM
IC50 (M-NFS-60 cells): > 1000 nM
IC50 [3]: 100 to 1000 nM
